In patent US20020025918A1, “Methods of using helical peptides in plants” (priority 1987, published 2002):
Converted amounts (≈) assume the structure as drawn. Like-named read-outs stand apart in the source and are kept apart here. Residues, ends and D or L forms follow the SMILES beside them.

Assays:
E. coli [1] = assay: MBC and MIC susceptibility test; format: cell-based; settings: Table III
P. aeruginosa = assay: MBC and MIC susceptibility test; format: cell-based; settings: Table III, P. aeuriginosa (−)
S. aureus = assay: MBC and MIC susceptibility test; format: cell-based; settings: Table III, S. aureus (+)
B-16 myeloma cells = assay: B-16 cell viability, trypan blue exclusion; format: cell-based; settings: for % Cell Viability: 100 μM peptide, one hour
Experimental: (§1) B-16 myeloma cells and normal 3T3 […] fibroblasts were either permitted to attach to the test plate, or treated with trypsin to free the cells from the plastic dish prior to treatment. Cells were then treated with 100 μM lytic peptide for one hour as described above, and cell viability was then determined by trypan blue exclusion.

[2] = 3T3 fibroblast viability, trypan blue exclusion; format: cell-based; settings: human, 100 μM peptide, one hour, read-out: % Cell Viability
Experimental: as §1

[3] = system: Human mononuclear leukocytes; assay: 3H-thymidine uptake in WBC (proliferation); format: cell-based
Experimental: Human mononuclear leukocytes were isolated from whole blood in the following manner. Blood was collected in vacutainer tubes containing EDTA, and was then diluted with an equal valume of calcium and magnesium-free PBS and layered over Histopaque resin (GIBCO). The tubes were centrifuged for 30 minutes at 25° C. and 450× g. The plasma and platelets above the banded layer of cells in the resulting gradient were removed and discarded. The banded white blood cells were removed to fresh test tubes, washed 3 times with PBS, and resuspended in RPMI medium containing 10% fetal bovine serum (FBS), mercaptoethanol, and penicillin and streptomycin as antibiotics. The cells were then counted and resuspended to a final concentration of 3×10^6 cells/ml.
To each well of a 96 well flat-bottomed microtiter plate was aded 100 μl of cells (3×10^5 cells). Treatment groups were set in quadruplicate samples. The appropriate concentration of test peptide and/or the mitogen hytohemaglutinate (PHA), was added in a total volume of 100 μl of medium to the test wells. The plates were then incubated at 37° C. and 5% CO2 for a duration of 72 hours. At the end of the incubation period, 1 μCi of 3H-thymidine in 1 μl TRIS-HCI, PH8 was added to each well, and the plates incubated an additional 18 hours.
Cellular DNA was harvested onto glass fiber filters using a semi-automatic cell harvester. The glass filters were then placed into vials containing scintillation fluid, and the samples were counted in a scintillation counter. The uptake of 3H-thymidine is an indiator of cell proliferation, thus the higher the number of counts in the sample, the greater the proliferative activity of the cells. The results in Table XI indicate that low dose of the synthetic peptides of this invention stimulate cell growth.

EL-4 lymphoma cells = assay: EL-4 cell killing, trypan blue exclusion; settings: one hour, 37° C.
E. coli [4] = assay: Synergy of lytic peptide with antibiotics
S. auerus = assay: Synergy of lytic peptide with antibiotics
[5] = Role of cytoskeletal structure in susceptibility to lysis, FDD cell viability; settings: donkey, primary fetal donkey dermal cells (FDD), % Viability of Treated DD Cells, 100 μM peptide 15 minutes
[6] = Manitou-1 0.01 μM + Streptomycin 0.5 μM
[7] = Manitou-1 0.01 μM + Streptomycin 5.0 μM
[8] = Manitou-1 0.01 μM + Tetracycline 0.5 μM
[9] = Manitou-1 0.01 μM + Tetracycline 5.0 μM
[10] = Manitou-1 0.01 μM, no antibiotic
[11] = Manitou-1 0.10 μM + Streptomycin 0.5 μM
[12] = Manitou-1 0.10 μM + Streptomycin 5.0 μM
[13] = Manitou-1 0.10 μM + Tetracycline 0.5 μM
[14] = Manitou-1 0.10 μM + Tetracycline 5.0 μM
[15] = Manitou-1 0.10 μM, no antibiotic
[16] = Manitou-1 1.0 μM + Streptomycin 0.5 μM
[17] = Manitou-1 1.0 μM + Streptomycin 5.0 μM
[18] = Manitou-1 1.0 μM + Tetracycline 0.5 μM
[19] = Manitou-1 1.0 μM + Tetracycline 5.0 μM
[20] = Manitou-1 1.0 μM, no antibiotic

CSCC[C@H](NC(=O)[C@H](CCCNC(=N)N)NC(=O)[C@H](CCCCN)NC(=O)[C@@H](N)CCSC)C(=O)N[C@H](C(=O)N[C@@H](CO)C(=O)N[C@@H](Cc1c[nH]c2ccccc12)C(=O)N[C@@H](CO)C(=O)N[C@@H](Cc1ccccc1)C(=O)N[C@@H](CCCCN)C(=O)N[C@@H](CCCCN)C(=O)N[C@@H](CC(C)C)C(=O)N[C@@H](CCCCN)C(=O)N[C@H](C(=O)N[C@@H](CCSC)C(=O)N[C@@H](CCCCN)C(=O)N[C@@H](CCCCN)C(=O)N[C@@H](CC(C)C)C(=O)N[C@@H](CC(C)C)C(=O)N[C@@H](CC(C)C)C(=O)N[C@@H](CC(C)C)C(=O)N[C@@H](CC(C)C)C(=O)N[C@@H](CC(C)C)C(=O)N[C@@H](CS)C(=O)N[C@H](C(=O)N[C@@H](Cc1ccccc1)C(=O)N[C@@H](CC(C)C)C(=O)N[C@H](C(=O)N[C@@H](CCCCN)C(=O)N[C@@H](CO)C(N)=O)C(C)C)C(C)C)[C@@H](C)O)C(C)C [Manitou-1] (H-MKRMVSWSFKKLKTMKKLLLLLLCVFLVKS-NH2)
MBC (E. coli [1]): 8 µM (≈ 28.9 µg/mL) | MBC (P. aeruginosa): 16 µM (≈ 57.8 µg/mL) | MBC (S. aureus): 32 µM (≈ 116 µg/mL) | % Cell Viability (B-16 myeloma cells; B-16 Monolayer): 19% | % Cell Viability (B-16 myeloma cells; B-16 Suspension (trypsinized)): 0% | selective killing of cancer cells in monolayer culture (in words) (B-16 myeloma cells; B-16 versus 3T3 attached in monolayer): more effective than LSB-37 in selectively killing cancer cells | viability at 1 h, 100 μM ([2]; normal 3T3 human fibroblasts, 3T3 Suspension (trypsinized)): 5% | viability at 1 h, 100 μM ([2]; 3T3 Monolayer): 85% | 3H-Thymidine Uptake in WBC, % of Control ([3]; peptide 10 μM, PHA 0 mg): 239% | 3H-Thymidine Uptake in WBC, % of Control ([3]; peptide 10 μM, PHA 0.5 mg): 191% | 3H-Thymidine Uptake in WBC, % of Control ([3]; peptide 10 μM, PHA 5.0 mg): 125% | 3H-Thymidine Uptake in WBC, % of Control ([3]; peptide 25 μM, PHA 0 mg): 325% | 3H-Thymidine Uptake in WBC, % of Control ([3]; peptide 25 μM, PHA 0.5 mg): 153% | 3H-Thymidine Uptake in WBC, % of Control ([3]; peptide 25 μM, PHA 5.0 mg): 143% | 3H-Thymidine Uptake in WBC, % of Control ([3]; peptide 50 μM, PHA 0 mg): 62% | 3H-Thymidine Uptake in WBC, % of Control ([3]; peptide 50 μM, PHA 0.5 mg): 61% | 3H-Thymidine Uptake in WBC, % of Control ([3]; peptide 50 μM, PHA 5.0 mg): 63% | 3H-Thymidine Uptake in WBC, % of Control ([3]; peptide 100 μM, PHA 0 mg): 39% | 3H-Thymidine Uptake in WBC, % of Control ([3]; peptide 100 μM, PHA 0.5 mg): 8% | 3H-Thymidine Uptake in WBC, % of Control ([3]; peptide 100 μM, PHA 5.0 mg): 0% | % EL-4 Cells Killed (EL-4 lymphoma cells; 10 μM peptide): 5% | % EL-4 Cells Killed (EL-4 lymphoma cells; 25 μM peptide): 28% | % EL-4 Cells Killed (EL-4 lymphoma cells; 50 μM peptide): 78% | % EL-4 Cells Killed (EL-4 lymphoma cells; 100 μM peptide): 100% | % Cell Death In E. coli (E. coli [4]; [6]): 99.9% | % Cell Death In E. coli (E. coli [4]; [7]): 58% | % Cell Death In E. coli (E. coli [4]; [8]): 68% | % Cell Death In E. coli (E. coli [4]; [9]): 88% | % Cell Death In E. coli (E. coli [4]; [10]): 0% | % Cell Death In E. coli (E. coli [4]; [11]): 68% | % Cell Death In E. coli (E. coli [4]; [12]): 99.9% | % Cell Death In E. coli (E. coli [4]; [13]): 0% | % Cell Death In E. coli (E. coli [4]; [14]): 58% | % Cell Death In E. coli (E. coli [4]; [15]): 0% | % Cell Death In E. coli (E. coli [4]; [16]): 0% | % Cell Death In E. coli (E. coli [4]; [17]): 99.9% | % Cell Death In E. coli (E. coli [4]; [18]): 0% | % Cell Death In E. coli (E. coli [4]; [19]): 47% | % Cell Death In E. coli (E. coli [4]; [20]): 0% | interaction with streptomycin in E. Coli (in words) (E. coli [4]; Manitou-1 with streptomycin): synergistic action | % Cell Death In S. auerus (S. auerus; [6]): 0% | % Cell Death In S. auerus (S. auerus; [7]): 87% | % Cell Death In S. auerus (S. auerus; [8]): 0% | % Cell Death In S. auerus (S. auerus; [9]): 35% | % Cell Death In S. auerus (S. auerus; [10]): 0% | % Cell Death In S. auerus (S. auerus; [11]): 0% | % Cell Death In S. auerus (S. auerus; [12]): 95% | % Cell Death In S. auerus (S. auerus; [13]): 0% | % Cell Death In S. auerus (S. auerus; [14]): 35% | % Cell Death In S. auerus (S. auerus; [15]): 0% | % Cell Death In S. auerus (S. auerus; [16]): 0% | % Cell Death In S. auerus (S. auerus; [17]): 86% | % Cell Death In S. auerus (S. auerus; [18]): 0% | % Cell Death In S. auerus (S. auerus; [19]): 35% | % Cell Death In S. auerus (S. auerus; [20]): 0% | viability at 15 minutes, 100 μM ([5]; Cold-treated (4° C.)): 8% | viability at 15 minutes, 100 μM ([5]; Warm-treated (37° C.)): 78% | viability at 15 minutes, 100 μM ([5]; with colchicine 0.1 μg/ml (cytoskeletal inhibitor), Colchicine-treated (0.1 μg/ml)): 30% | viability at 15 minutes, 100 μM ([5]; with cytochalasin D 5 μg/ml (cytoskeletal inhibitor), Cytochalasin D-treated (5 μg/ml)): 23%
